Results from paper PMC6368337, “GluClR-mediated inhibitory postsynaptic currents reveal targets for ivermectin and potential mechanisms of ivermectin resistance” (PLoS Pathogens, 2019).

Columns and labels:
[1] = target: αβ (1:50) GluClRs (Haemonchus contortus, UniProt O46124+P91730); experiment: Two-electrode voltage clamp in oocytes, αβ (1:50) GluClRs; type: cell-based, H. contortus; details: 30 nM; for efficacy (maximal current normalised to saturating glutamate) compared to IVM: normalised to 5 mM glutamate, αβ 1:50; for differential efficacy between α and αβ (1:50) GluClRs: α versus αβ (1:50)
αβ (1:50) GluClRs, sequence (O46124 entry or part of it): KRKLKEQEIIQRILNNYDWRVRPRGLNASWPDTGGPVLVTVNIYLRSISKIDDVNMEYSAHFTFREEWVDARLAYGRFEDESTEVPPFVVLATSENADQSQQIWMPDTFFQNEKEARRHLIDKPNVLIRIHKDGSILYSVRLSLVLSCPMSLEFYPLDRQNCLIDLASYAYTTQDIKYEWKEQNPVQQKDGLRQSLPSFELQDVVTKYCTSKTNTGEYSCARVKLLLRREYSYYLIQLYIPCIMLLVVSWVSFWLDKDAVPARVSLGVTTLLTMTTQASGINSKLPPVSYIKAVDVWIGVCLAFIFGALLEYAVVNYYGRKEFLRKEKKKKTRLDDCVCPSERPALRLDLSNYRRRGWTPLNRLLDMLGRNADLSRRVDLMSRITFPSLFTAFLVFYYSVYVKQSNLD
αβ (1:50) GluClRs, sequence (P91730 19-432): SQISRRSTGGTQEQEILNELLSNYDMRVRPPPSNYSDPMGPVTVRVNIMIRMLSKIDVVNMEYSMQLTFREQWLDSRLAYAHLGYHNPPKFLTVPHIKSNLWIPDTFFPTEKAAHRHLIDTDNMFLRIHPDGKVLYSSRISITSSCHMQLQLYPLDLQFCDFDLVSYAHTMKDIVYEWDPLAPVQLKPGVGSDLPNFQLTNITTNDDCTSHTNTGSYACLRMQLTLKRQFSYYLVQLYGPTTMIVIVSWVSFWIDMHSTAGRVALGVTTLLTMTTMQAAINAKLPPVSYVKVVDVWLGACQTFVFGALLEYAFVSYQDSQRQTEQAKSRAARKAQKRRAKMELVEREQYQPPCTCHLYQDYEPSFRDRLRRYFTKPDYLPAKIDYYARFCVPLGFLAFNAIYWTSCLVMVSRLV
Description: (§1) cDNAs encoding the α (avr-14b) (pcDNA 3.1+) or β (pUNIV) GluClR subunits of H. contortus were nuclear injected into oocytes (NASCO, WI USA) or transfected into HEK293AD cells (CellBank Australia) using a calcium phosphate-DNA co-precipitate method. Synapse formation between neurons and HEK293 cells was promoted by co-transfecting neuroligin 2A or 1B and the cDNA encoding CD4 surface antigen was also added to the transfection mixture so as to identify transfected cells. The oocytes and HEK cells were used for experiments 2–3 days after the introduction of the cDNAs. All experiments were done at room temperature (22 ± 1°C).
(§2) Xenopus laevis oocytes were harvested by surgical incision. The oocytes were then defolliculated with 1.5 mg/ml collagenase for 2 hours. Free oocytes were rinsed with calcium-free OR-2 solution containing (in mM) 82.5 NaCl, 2 KCl, 1 MgCl2, 5 HEPES, pH 7.4 and mature stage V or VI oocytes were isolated for experiments. The DNAs coding for α and β subunits were nuclear injected into the oocytes using a Nanoliter 2000 microinjector (WPI Inc) at a ratio of (α:β), 1:0, 0:1, 1:1 and 1:50. The total amount of injected DNA in all combinations was 400 ng ml^−1, including the 1:50 (α:β) combination (8 ng of DNA encoding the α and 392 ng of DNA encoding β subunits). Injected oocytes were incubated in ND96 storage solution (in mM) 96 NaCl, 2 KCl, 1 MgCl2.6H2O, 1.8 CaCl2, 5 HEPES, 50 μg ml^−1 gentamicin, 2.5 sodium pyruvate, 0.5 theophylline, pH 7.4 at 16°C for 2–3 days before experiment.
(§3) For the two-electrode voltage clamp recordings, each oocyte was secured in a cell bath that was continually perfused with ND96 recording solution (ND96 storage solution without pyruvate, theophylline and gentamicin). […] The two microelectrodes contained 3 M KCl and had resistances of 0.2–2 MΩ. Recordings were done using Clampex 10.2 software (Molecular Devices) at a clamped voltage of −40 mV. Currents were low-pass filtered at 200 Hz, sampled at 2 kHz using a Gene Clamp 500B amplifier and digitised by a Digidata 1440A interface. The IVM (IVM B1a) concentration-response experiments were standardised by using an application protocol that consisted of applying increasing concentrations of IVM for, respectively, 3 min, 3 min, 3 min, 2 min, 1 min, 1 min and 0.5 min.
(§4) Group data were analysed in SigmaPlot 13.0 using one-way ANOVAs, where p < 0.05 was taken as the significance threshold and expressed as mean ± SEM. Tests for normally distributed data are built into the SigmaPlot software. Confocal images were captured and analysed with Zen 2012 SP2 (Zeiss) software. Oocyte concentration-response data were fit to a Hill equation to obtain an EC50 and Hill co-efficient for each oocyte recording. These parameters were then averaged across multiple oocyte experiments of the same type. Single channel recordings were analysed in QuB software. […] The selected critical times eliminated periods of receptor desensitisation while retaining singe receptor active periods. Mean active period duration and intra-activation open probability was estimated from each patch. Group means were obtained by averaging across multiple patches for each recording condition.

[2] = target: α (avr-14b) GluClRs (Haemonchus contortus, UniProt O46124); experiment: Two-electrode voltage clamp in oocytes, α GluClRs; type: cell-based, H. contortus; details: for efficacy (maximal current normalised to saturating glutamate) compared to IVM: 30 nM, normalised to 5 mM glutamate
α (avr-14b) GluClRs, sequence (O46124 entry or part of it): as the sequence (O46124 entry or part of it) above
Description: as §1, §2, §3, §4

[3] = system: Untransfected HEK293 cells; experiment: Fluorescence recovery after photobleaching (FRAP), lateral membrane diffusion
Description: The second experiment was aimed at determining the lateral membrane diffusion properties of IVM using the fluorescence recovery after photobleaching (FRAP) technique. After a 30-min equilibration time, 5 cells were monitored for fluorescence recovery within a bleached circular patch of membrane of 3.7 μm diameter (Fig 8C). Any bleaching and recovery of the surrounding area of the cell was measured, using a similar circular patch and used to correct the recovery rate of the membrane delineated by the bleached area. We also noted that the recovery reached 98 ± 2% of control. The time constant (τ) for recovery of 1.3 minutes was used to calculate the diffusion coefficient (D), using the radius (r) of the bleached patch, according to D = r^2/4τ. The calculated value of D was 1.1 x 10^−2 μm^2s^−1. Over the course of 1 s, the IVM-bdpy probe would traverse 0.2 μm along the membrane surface (lateral diffusion rate of 0.2 μms^−1). […] We infer that this slow lateral diffusion rate coupled to membrane partitioning are the major contributors to local increases of IVM around its target binding sites and the slow quasi-irreversible actions of IVM at GluClRs.
(§5) Membrane partitioning and FRAP experiments were performed on an LSM 710 inverted 2-photon confocal microscope equipped with a 40X water immersion objective lens (1.2 NA/280 μM WD/0.208 μM/pixel and a GFP/Alexa 488 filter set. Untransfected HEK293 cells at a confluency of 50–75% were plated onto 35-mm glass bottom dishes one day prior to experiments. The IVM-bdpy fluorophore was dissolved in 100% DMSO and stored at ‐20°C at a concentration of 24 mM.
(§6) A Mai Tai eHP 2-photon laser/760-1040 nm was used as an excitation source (power at 920 nm) for the FRAP experiments. The laser and bleaching power were set to 7% and 75% respectively. Membrane partitioning images were taken for 35 min at 0.5 Hz after replacing the cell medium (extracellular solution) with one containing the IVM-bdpy probe at a concentration of 500 nM. FRAP images were taken at a frequency of 0.5 Hz for 10 min after a 30 min equilibration period in 500 nM IVM-bdpy.

[4] = system: Untransfected HEK293 cells; experiment: Membrane partitioning, time-lapse fluorescence; details: 500 nM; for membrane accumulation time constant: change in membrane fluorescence over 30 min, exponential fit
Description: Two types of experiments were conducted with IVM-bdpy. The first was aimed at monitoring the time-course of membrane accumulation. Untransfected HEK293 cells were incubated in extracellular solution containing 500 nM IVM-bdpy and time-lapse images were taken over a period of 30 min (Fig 8A). The change in total membrane fluorescence averaged from 5 repeat experiments was then plotted against time and fitted to a standard exponential function (Fig 8B). In a control experiment, the corresponding accumulation rate was also determined for bdpy. To obtain the net membrane partitioning time-course for IVM-1, the data for the bdpy alone was subtracted from the data obtained for IVM-bdpy (Fig 8B). The time constants for the three plots were 6.5 min for the IVM-bdpy, 8.2 min for the bdpy fluorophore and 6.0 min for IVM-1. As the lipophilic properties of IVM and IVM-1 are similar (logPs of 5.4 and 5.1, respectively), we infer this analysis quantitatively reflects the membrane partitioning properties of IVM. […] It should be noted, however, that the IVM-bdpy experiment was done using a 100-fold higher concentration of drug in un-transfected cells and represents passive membrane accumulation, whereas the current plateau involved IVM binding to and activating receptors.
as §5, §6

[5] = system: α GluClRs; experiment: IPSC recording in HEK293-neuron heteroculture, α GluClRs; type: cell-based, H. contortus; details: HEK293-neuron co-culture, −70 mV
Description: as §1
Primary neuronal cultures were prepared from cortices of E18 rat embryos, (University of Queensland Biological Services), which were triturated and plated at 100,000 cells per 18-mm poly-D-lysine-coated coverslip in DMEM with 10% fetal bovine serum. After 24 h the entire medium was replaced with Neurobasal medium that included 2% B27 and 1% GlutaMAX supplements. After one week half of this medium was replaced and the neurons were allowed to grow in vitro for 3–5 weeks before introducing the transfected HEK293 cells. Recordings of synaptic currents were done in whole-cell configuration at ‐70 mV using an Axopatch 200B amplifier (Molecular Devices), filtered at 5 kHz and digitized at 20 kHz using Clampex (pClamp 10 suite, Molecular Devices) via a Digidata 1440A digitizer.

Row | Compound | efficacy (maximal current normalised to saturating glutamate) compared to IVM [1] | differential efficacy between α and αβ (1:50) GluClRs [1] | efficacy (maximal current normalised to saturating glutamate) compared to IVM [2] | membrane accumulation time constant [4] | also measured
1 | CC[C@H](C)[C@H]1O[C@]2(CC[C@@H]1C)C[C@@H]1C[C@@H](C/C=C(\C)[C@@H](OCOC)[C@@H](C)/C=C/C=C3\CO[C@@H]4[C@H](O)C(C)=C[C@@H](C(=O)O1)[C@]34O)O2 [IVM-2] | preservation of efficacy | abolished the differential sensitivity | restored efficacy |  | 
2 | CC[C@H](C)[C@H]1O[C@]2(CC[C@@H]1C)C[C@@H]1C[C@@H](C/C=C(\C)[C@@H](OCOC)[C@@H](C)/C=C/C=C3\CO[C@@H]4[C@@H](O)C(C)=C[C@@H](C(=O)O1)[C@]34O)O2 [IVM-3] | most marked reduction in potency | ablated the differential efficacy | most marked reduction in potency |  | 
3 | CCC1=C(C)C2=C(c3ccc(OCc4cn(CCCC(=O)O[C@@H]5/C(C)=C/C[C@@H]6C[C@@H](C[C@]7(CC[C@H](C)[C@@H]([C@@H](C)CC)O7)O6)OC(=O)[C@@H]6C=C(C)[C@@H](O)[C@H]7OC/C(=C\C=C\[C@@H]5C)[C@]76O)nn4)cc3)c3c(C)c(CC)c(C)n3[B-](F)(F)[N+]2=C1C [IVM-bdpy] |  |  |  | 6.5 min | FRAP recovery time constant (τ) ([3]; 500 nM, 30 min equilibration): 1.3 min; diffusion coefficient (D) ([3]; calculated by D = r^2/4τ): 1.1 x 10^−2 μm^2s^−1; lateral diffusion rate ([3]; in cell membrane): 0.2 μms^−1; time to saturate whole cell membranes [4]: about 18 minutes; potency relative to IVM ([2]; concentration-response, n = 6): reduced potency; activity at α GluClRs ([2]; oocyte current): active
4 | C#CCOc1ccc(C2=C3C(C)=C(CC)C(C)=[N+]3[B-](F)(F)n3c(C)c(CC)c(C)c32)cc1 [bdpy] |  |  |  | 8.2 min | 
5 | picrotoxin |  |  |  |  | effect on IPSCs [5]: blocked
